Counter-ions that a name gives are not always drawn. Like-named read-outs stand apart in the source and are kept apart here.
Experiments:
iNOS = iNOS (Homo sapiens, UniProt P35228); assay: NOS activity: L-[3H]citrulline formation from L-[3H]arginine, iNOS; format: biochemical
Experimental: (§1) NOS activity is measured as the formation of L-[2,3,4,5-^3 H]Citrullinefrom L-[2,3,4,5-^3 H]Arginine. The incubation buffer (100 μL) contained; 100 mM TES, pH 7.5, 5 μM FAD, 5 μM FMN, 10 μM BH4, 0.5 mM NADPH, 0.5 mM DTT, 0.5 mg/mL BSA, 2 mM CaCl2, 10 μg/mL calmodulin (bovine), 1 μM L-Arg, 0.2 μCi L-[2,3,4,5-^3 H]Arg, and the inhibitor in aqueous DMSO (max. 5%). The reaction is initiated by addition of enzyme. Incubations are performed at room temperature for 30 minutes and stopped by the addition of an equal volume of quenching buffer consisting of 200 mM sodium citrate, pH 2.2, 0.02% sodium azide. Reaction products are separated by passing through a cation exchange resin and quantitated as cpm by scintillation counting.

ecNOS = ecNOS (Homo sapiens, UniProt P29474); assay: NOS activity: L-[3H]citrulline formation from L-[3H]arginine, ecNOS; format: biochemical
Experimental: as §1

ncNOS = ncNOS (Homo sapiens, UniProt P29475); assay: biochemical
Chain of ncNOS (P29475 whole entry): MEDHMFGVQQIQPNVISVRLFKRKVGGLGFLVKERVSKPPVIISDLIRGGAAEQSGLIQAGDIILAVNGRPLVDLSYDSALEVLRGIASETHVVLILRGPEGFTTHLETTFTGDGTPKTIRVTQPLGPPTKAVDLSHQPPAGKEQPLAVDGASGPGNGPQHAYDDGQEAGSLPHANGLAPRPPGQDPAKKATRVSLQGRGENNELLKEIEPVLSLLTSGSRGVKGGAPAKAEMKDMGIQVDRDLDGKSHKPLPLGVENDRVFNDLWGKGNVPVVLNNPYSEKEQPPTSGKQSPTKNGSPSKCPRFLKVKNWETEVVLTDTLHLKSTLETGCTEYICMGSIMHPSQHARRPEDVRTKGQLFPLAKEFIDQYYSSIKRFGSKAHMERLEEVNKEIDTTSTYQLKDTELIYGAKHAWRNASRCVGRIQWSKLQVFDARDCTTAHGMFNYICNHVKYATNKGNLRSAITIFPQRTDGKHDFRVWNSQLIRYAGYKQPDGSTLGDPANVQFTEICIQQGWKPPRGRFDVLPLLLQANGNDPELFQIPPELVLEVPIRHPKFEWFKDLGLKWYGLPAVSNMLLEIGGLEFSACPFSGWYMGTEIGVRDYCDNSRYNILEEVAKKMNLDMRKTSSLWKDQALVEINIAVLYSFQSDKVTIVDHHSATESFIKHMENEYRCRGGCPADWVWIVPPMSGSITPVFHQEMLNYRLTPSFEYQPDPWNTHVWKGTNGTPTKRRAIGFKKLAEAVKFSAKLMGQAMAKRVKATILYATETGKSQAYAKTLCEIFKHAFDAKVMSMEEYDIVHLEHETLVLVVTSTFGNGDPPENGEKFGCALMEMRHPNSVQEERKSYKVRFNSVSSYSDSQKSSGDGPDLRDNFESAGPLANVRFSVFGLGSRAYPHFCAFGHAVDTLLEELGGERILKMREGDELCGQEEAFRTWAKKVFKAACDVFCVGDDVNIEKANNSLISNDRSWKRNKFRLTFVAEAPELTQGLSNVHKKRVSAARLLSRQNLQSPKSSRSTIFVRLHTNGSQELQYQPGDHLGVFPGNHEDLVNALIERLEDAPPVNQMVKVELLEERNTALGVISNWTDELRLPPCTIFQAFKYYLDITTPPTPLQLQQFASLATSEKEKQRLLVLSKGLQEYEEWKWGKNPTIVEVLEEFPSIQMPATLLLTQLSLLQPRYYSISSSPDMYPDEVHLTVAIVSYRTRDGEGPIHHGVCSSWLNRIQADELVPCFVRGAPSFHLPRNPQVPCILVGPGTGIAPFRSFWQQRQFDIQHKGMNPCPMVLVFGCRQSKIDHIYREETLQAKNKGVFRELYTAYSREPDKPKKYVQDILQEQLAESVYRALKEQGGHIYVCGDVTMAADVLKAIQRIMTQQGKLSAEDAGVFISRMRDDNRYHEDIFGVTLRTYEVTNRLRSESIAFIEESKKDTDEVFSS

[1] = Table 2, iNOS, 1 μM L-Arg, pH 7.5, room temperature, 30 minutes, read-out: iNOS (IC50)
[2] = Table 2, ecNOS, 1 μM L-Arg, pH 7.5, room temperature, 30 minutes, read-out: ecNOS (IC50)
[3] = Table 2, ncNOS, 1 μM L-Arg, pH 7.5, room temperature, 30 minutes, read-out: ncNOS (IC50)
[4] = Table 1, iNOS, 1 μM L-Arg, pH 7.5, room temperature, 30 minutes, read-out: iNOS (IC50)
[5] = Table 1, ecNOS, 1 μM L-Arg, pH 7.5, room temperature, 30 minutes, read-out: ecNOS (IC50)
[6] = Table 1, ncNOS, 1 μM L-Arg, pH 7.5, room temperature, 30 minutes, read-out: ncNOS (IC50)

| SMILES | IC50 (iNOS; [1]) [µM] | IC50 (ecNOS; [2]) [µM] | IC50 (ncNOS; [3]) [µM] | other results |
| --- | --- | --- | --- | --- |
| Cc1ccc(N)nc1C [Example 51, 2-Amino-5,6-dimethylpyridine] | < 10 | < 10 | < 10 | – |
| Cc1ccnc(N)c1CO [Example 23, 2-Amino-3-hydroxymethyl-4-picoline] | < 1 | < 1 | – | – |
| Nc1cc2c(cn1)CCCC2 [Example 64, 3-Amino-5,6,7,8-tetrahydroisoquinoline] | < 10 | – | – | – |
| N#Cc1ccnc(N)c1 [Example 16, 2-Amino-4-cyanopyridine] | – | – | – | IC50 (iNOS; [4]): > 50 µM |
| Cc1cc(N)nc(CCCCc2ccccc2)c1 [Example 70, 2-Amino-4-methyl-6-(4-phenylbutyl)pyridine] | < 10 | < 10 | < 10 | – |
| Nc1cc(-c2ccccc2)ccn1 [Example 11] | – | – | – | IC50 (iNOS; [4]): > 50 µM |
| CC(=O)Nc1cnc(N)cc1C [Example 31, 5-Acetylamino-2-amino-4-picoline] | < 10 | < 50 | < 50 | – |
| CSCc1ccnc(N)c1 [Example 22, 2-Amino-4-methylthiomethylpyridine] | < 50 | > 50 | > 50 | – |
| Cc1cc(N)nc(CCN)c1 [Example 67, 2-Amino-6-(2-aminoethyl)-4-methylpyridine] | < 1 | < 50 | < 1 | – |
| COc1ccnc(N)c1 [Example 34, 4-Methoxy-2-aminopyridine] | < 10 | < 10 | < 10 | – |
| Cc1cccnc1N [Example 2] | – | – | – | IC50 (iNOS; [4]): 3.4 µM; IC50 (ecNOS; [5]): 1.2 µM |
| Nc1ccc(-c2ccccc2)cn1 [Example 39, 2-Amino-5-phenylpyridine] | > 50 | – | – | – |
| COc1cccnc1N [Example 20, 2-Amino-3-methoxypyridine] | > 50 | < 50 | < 50 | – |
| CCc1ccc(N)nc1 [Example 60, 2-Amino-5-ethylpyridine] | < 10 | < 50 | – | – |
| Nc1cccc(Cc2ccccc2)n1 [Example 61, 2-Amino-6-benzylpyridine] | < 50 | > 50 | < 50 | – |
| Cc1ccnc(N)c1C [Example 13, 2-Amino-3,4-dimethylpyridine] | – | – | – | IC50 (iNOS; [4]): 0.076 µM; IC50 (ecNOS; [5]): < 1 µM |
| Cc1ccnc(N)c1N(C)C [Example 27, 2-Amino-3-dimethylamino-4-picoline trihydrochloride] | < 50 | > 50 | < 50 | – |
| Cc1cc(N)ncc1C#N [Example 42, 2-Amino-5-cyano-4-methylpyridine] | > 50 | – | – | – |
| Nc1cc(Cl)ccn1 [Example 15, 2-Amino-4-chloropyridine] | – | – | – | IC50 (iNOS; [4]): < 1 µM; IC50 (ecNOS; [5]): < 10 µM; IC50 (ncNOS; [6]): < 10 µM |
| Nc1ncccc1O [Example 9] | – | – | – | IC50 (iNOS; [4]): 47.5 µM; IC50 (ecNOS; [5]): > 50 µM; IC50 (ncNOS; [6]): > 50 µM |

| SMILES | IC50 (iNOS; [1]) [µM] | IC50 (ecNOS; [2]) [µM] | IC50 (ncNOS; [3]) [µM] | other results |
| --- | --- | --- | --- | --- |
| CC(=O)NCCCCc1cc(C)cc(N)n1 [Example 57, 6-(4-Acetamidobutyl)-2-amino-4-methylpyridine] | < 10 | < 10 | < 1 | – |
| Cc1cc(N)nc(CCCCC(=O)O)c1 [Example 74, 5-(6-Amino-4-methyl-2-pyridinyl)pentanoic acid hydrochloride] | < 10 | < 1 | < 10 | – |
| CSc1c(C)ccnc1N [Example 21, 2-Amino-3-methylthio-4-picoline] | < 50 | < 50 | < 10 | – |
| CCc1cc(C)cc(N)n1 [Example 54, 2-Amino-6-ethyl-4-methylpyridine] | < 1 | < 1 | < 1 | – |
| Cc1ccnc(N)c1Cl [Example 28, 2-Amino-3-chloro-4-picoline] | < 1 | < 10 | < 10 | – |
| Nc1nccc2c1CCCC2 [Example 65, 1-Amino-5,6,7,8-tetrahydroisoquinoline] | < 50 | < 50 | < 50 | – |
| C=Cc1c(C)cc(N)nc1C [Example 37, 4,6-Dimethyl-5-ethenyl-2-aminopyridine] | < 10 | < 10 | < 1 | – |
| CCc1cccc(N)n1 [Example 52, 2-Amino-6-ethylpyridine] | < 1 | < 1 | < 1 | – |
| Nc1ccccn1 [Example 1] | – | – | – | IC50 (iNOS; [4]): 1.4 µM; IC50 (ecNOS; [5]): < 10 µM; IC50 (ncNOS; [6]): < 10 µM |
| Cc1cc(N)nc(CCO)c1 [Example 58, 2-Amino-6-(2-hydroxyethyl)-4-methylpyridine] | < 1 | < 1 | < 1 | – |
| Cc1cc(N)nc(CCC(C)C)c1 [Example 71, 2-Amino-4-methyl-6-(3-methylbutyl)pyridine] | < 1 | < 10 | < 1 | – |
| Cc1cc(N)nc(CCCN)c1 [Example 66, 2-Amino-6-(3-aminopropyl)-4-methylpyridine] | < 1 | < 10 | < 1 | – |
| Cc1cc(N)ncc1Br [Example 41, 2-Amino-5-bromo-4-methylpyridine] | < 10 | < 10 | < 10 | – |
| Cc1cc(N)nc(CCC(N)C(=O)O)c1 (stereo not drawn) [Example 59, α-(2-(6-Amino-4-methylpyrid-2-yl)ethyl)glycine dihydrochloride] | < 1 | < 1 | < 1 | – |
| COCc1c(C)ccnc1N [Example 25, 2-Amino-3-methoxymethyl-4-picoline dihydrochloride] | < 10 | < 50 | < 50 | – |
| Cc1cc(N)nc(CC(C)C)c1 [Example 72, 2-Amino-4-methyl-6-(2-methylpropyl)pyridine] | < 1 | < 1 | < 1 | – |
| Cc1cc(N)nc(CCc2ccccc2)c1 [Example 73, 2-Amino-4-methyl-6-(2-phenylethyl)pyridine] | < 10 | < 10 | < 10 | – |
| Cc1ccnc(NCc2ccccc2)c1 [Example 18, 2-Benzylamino-4-methylpyridine] | – | – | – | IC50 (iNOS; [4]): 2.4 µM; IC50 (ecNOS; [5]): < 50 µM |
| CC(=O)NCc1cnc(N)cc1C [Example 46, 2-Amino-5-acetamidomethyl-4-methylpyridine] | < 10 | > 50 | > 50 | – |
| Cc1cc(N)ncc1Cl [Example 29, 2-Amino-5-chloro-4-picoline] | < 10 | < 50 | < 50 | – |

| SMILES | IC50 (iNOS; [1]) [µM] | IC50 (ecNOS; [2]) [µM] | IC50 (ncNOS; [3]) [µM] | other results |
| --- | --- | --- | --- | --- |
| Cc1cc(C)nc(N)c1 [Example 6] | – | – | – | IC50 (iNOS; [4]): 0.108 µM |
| Cc1cnc(N)c(C)c1 [Example 50, 2-Amino-3,5-dimethylpyridine] | < 50 | < 10 | < 10 | – |
| CCCc1c(C)ccnc1N [Example 26, 2-Amino-3-n-propyl-4-picoline dihydrochloride] | < 50 | – | – | – |
| Cc1cc(N)nc(CCCc2ccccc2)c1 [Example 69, 2-Amino-4-methyl-6-(3-phenylpropyl)pyridine] | < 50 | < 50 | < 10 | – |
| Cc1ccnc(N)c1N [Example 17, 2,3-Diamino-4-methylpyridine] | – | – | – | IC50 (iNOS; [4]): 0.058 µM; IC50 (ecNOS; [5]): 0.081 µM |
| Cc1cc(N)ncc1N [Example 30, 2.5-Diamino-4-picoline] | – | – | – | IC50 (iNOS): < 10 µM; IC50 (ecNOS): < 50 µM; IC50 (ncNOS): < 50 µM |
| Nc1cc(C(F)(F)F)ccn1 [Example 8] | – | – | – | IC50 (iNOS; [4]): 13.2 µM; IC50 (ecNOS; [5]): 73 µM |
| COC(=O)c1cc(Cl)cc(N)n1 [Example 36, 4-Chloro-6-methoxycarbonyl-2-aminopyridine] | < 50 | > 50 | > 50 | – |
| Cc1cc(N)nc(CC[C@@H](C)N)c1 [Example 77, (R)-2-Amino-6-(3-aminobutyl)-4-methylpyridine] | < 10 | < 50 | < 1 | – |
| C=CCCc1cc(C)cc(N)n1 [Example 53, 2-Amino-6-(3-buten-1-yl)-4-methylpyridine] | < 1 | < 1 | < 1 | – |
| Cc1cccc(N)n1 [Example 5] | – | – | – | IC50 (ecNOS; [5]): 0.82 µM |
| CCc1c(C)ccnc1N [Example 24, 2-Amino-3-ethyl-4-picoline dihydrochloride] | < 10 | < 10 | – | – |
| Nc1cccnc1N [Example 10] | – | – | – | IC50 (iNOS; [4]): < 10 µM; IC50 (ecNOS; [5]): 1.9 µM |
| Nc1cc(Cc2ccccc2)ccn1 [Example 12] | – | – | – | IC50 (iNOS; [4]): > 50 µM |
| Cc1cc(N)ncc1CO [Example 47, 2-Amino-5-hydroxymethyl-4-methylpyridine] | < 10 | – | – | – |
| COC(=O)c1cnc(N)cc1C [Example 44, 2-Amino-5-methoxycarbonyl-4-methylpyridine] | > 50 | – | – | – |
| CC(C)(C)c1ccnc(N)c1 [Example 14, 2-Amino-4-tert-butylpyridine] | – | – | – | IC50 (iNOS; [4]): > 50 µM |
| Cc1ccc(N)nc1 [Example 4] | – | – | – | IC50 (iNOS; [4]): 1.3 µM; IC50 (ecNOS; [5]): 3.1 µM |
| Cc1cc(N)ncc1-c1ccccc1 [Example 40, 2-Amino-4-methyl-5-phenylpyridine] | > 50 | – | – | – |

Reference: patent US5972975A, “Substituted 2-aminopyridines as inhibitors of nitric oxide synthase” (priority 1997, dated 1999)
